Data: ChEMBL document CHEMBL1201862, “PubChem BioAssay data set” (2004)
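Assay format: 96-well plates, 48-hour exposure. At the GI50, growth is halved.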 Calls of active or inactive are those of the source. Cut-off read from the data, not from the text of the source: active = GI50 up to about 1.1 µM and inactive = higher.

Columns and labels:
Assay in all cases: NCI-60 cell line screen, 48 h
786-0 = tested on: 786-0
A498 = tested on: A498
A549 = tested on: A549
ACHN = tested on: ACHN
BT-549 = tested on: BT-549
CAKI-1 = tested on: CAKI-1
CCRF-CEM = tested on: CCRF-CEM
COLO 205 = tested on: COLO 205
DU-145 = tested on: DU-145
EKVX = tested on: EKVX
HCC 2998 = tested on: HCC 2998
HCT-116 = tested on: HCT-116
HCT-15 = tested on: HCT-15
HL-60 = tested on: HL-60
HOP-62 = tested on: HOP-62
HT-29 = tested on: HT-29
IGROV-1 = tested on: IGROV-1
K562 = tested on: K562
KM12 = tested on: KM12
LOX IMVI = tested on: LOX IMVI
MCF7 = tested on: MCF7
MDA-MB-231 = tested on: MDA-MB-231
MDA-MB-435 = tested on: MDA-MB-435
MOLT-4 = tested on: MOLT-4
Malme-3M = tested on: Malme-3M
NCI-H226 = tested on: NCI-H226
NCI-H23 = tested on: NCI-H23
NCI-H460 = tested on: NCI-H460
NCI/ADR-RES = tested on: NCI/ADR-RES
OVCAR-3 = tested on: OVCAR-3
OVCAR-4 = tested on: OVCAR-4
OVCAR-5 = tested on: OVCAR-5
OVCAR-8 = tested on: OVCAR-8
RPMI-8226 = tested on: RPMI-8226
RXF 393 = tested on: RXF 393
SF-268 = tested on: SF-268
SF-295 = tested on: SF-295
SF-539 = tested on: SF-539
SK-MEL-28 = tested on: SK-MEL-28
SK-MEL-5 = tested on: SK-MEL-5
SK-OV-3 = tested on: SK-OV-3
SN12C = tested on: SN12C
SNB-19 = tested on: SNB-19
SNB-75 = tested on: SNB-75
SR = tested on: SR
SW-620 = tested on: SW-620
T47D = tested on: T47D
TK-10 = tested on: TK-10
U-251 = tested on: U-251
UACC-257 = tested on: UACC-257
UACC-62 = tested on: UACC-62
UO-31 = tested on: UO-31
HOP-92 = tested on: HOP-92
Hs-578T = tested on: Hs-578T
M14 = tested on: M14
MDA-N = tested on: MDA-N
NCI-H522 = tested on: NCI-H522
PC-3 = tested on: PC-3
SK-MEL-2 = tested on: SK-MEL-2

CCOC(=O)N(c1ccccc1)c1cc(=O)n2ccccc2n1
GI50 (786-0): > 100 µM (inactive)
GI50 (A498): > 100 µM (inactive)
GI50 (A549): > 100 µM (inactive)
GI50 (ACHN): > 100 µM (inactive)
GI50 (BT-549): > 100 µM (inactive)
GI50 (CAKI-1): > 100 µM (inactive)
GI50 (CCRF-CEM): > 100 µM (inactive)
GI50 (COLO 205): > 100 µM (inactive)
GI50 (DU-145): > 100 µM (inactive)
GI50 (EKVX): > 100 µM (inactive)
GI50 (HCC 2998): > 100 µM (inactive)
GI50 (HCT-116): > 100 µM (inactive)
GI50 (HCT-15): > 100 µM
GI50 (HL-60): > 100 µM (inactive)
GI50 (HOP-62): > 100 µM (inactive)
GI50 (HT-29): > 100 µM (inactive)
GI50 (IGROV-1): > 100 µM (inactive)
GI50 (K562): > 100 µM (inactive)
GI50 (KM12): > 100 µM (inactive)
GI50 (LOX IMVI): > 100 µM (inactive)
GI50 (MCF7): > 100 µM (inactive)
GI50 (MDA-MB-231): > 100 µM (inactive)
GI50 (MDA-MB-435): > 100 µM (inactive)
GI50 (MOLT-4): > 100 µM (inactive)
GI50 (Malme-3M): > 100 µM (inactive)
GI50 (NCI-H226): > 100 µM (inactive)
GI50 (NCI-H23): > 100 µM (inactive)
GI50 (NCI-H460): > 100 µM (inactive)
GI50 (NCI/ADR-RES): > 100 µM (inactive)
GI50 (OVCAR-3): > 100 µM (inactive)
GI50 (OVCAR-4): > 100 µM (inactive)
GI50 (OVCAR-5): > 100 µM (inactive)
GI50 (OVCAR-8): > 100 µM (inactive)
GI50 (RPMI-8226): > 100 µM (inactive)
GI50 (RXF 393): 38.9 µM (inactive)
GI50 (SF-268): > 100 µM (inactive)
GI50 (SF-295): > 100 µM (inactive)
GI50 (SF-539): > 100 µM (inactive)
GI50 (SK-MEL-28): > 100 µM (inactive)
GI50 (SK-MEL-5): > 100 µM (inactive)
GI50 (SK-OV-3): > 100 µM (inactive)
GI50 (SN12C): > 100 µM (inactive)
GI50 (SNB-19): > 100 µM (inactive)
GI50 (SNB-75): > 100 µM (inactive)
GI50 (SR): > 100 µM (inactive)
GI50 (SW-620): > 100 µM (inactive)
GI50 (T47D): > 100 µM (inactive)
GI50 (TK-10): > 100 µM (inactive)
GI50 (U-251): > 100 µM (inactive)
GI50 (UACC-257): > 100 µM (inactive)
GI50 (UACC-62): > 100 µM (inactive)
GI50 (UO-31): > 100 µM (inactive)

Nc1ncnc2c1cnn2Cc1ccc(Cl)cc1
GI50 (A498): 0.445 µM (active)
GI50 (A549): > 100 µM (inactive)
GI50 (ACHN): > 100 µM (inactive)
GI50 (CCRF-CEM): > 100 µM (inactive)
GI50 (COLO 205): > 100 µM (inactive)
GI50 (DU-145): > 100 µM (inactive)
GI50 (HCC 2998): > 100 µM (inactive)
GI50 (HCT-116): > 100 µM (inactive)
GI50 (HCT-15): > 100 µM
GI50 (HL-60): > 100 µM (inactive)
GI50 (HOP-92): > 100 µM (inactive)
GI50 (HT-29): > 100 µM (inactive)
GI50 (Hs-578T): > 100 µM (inactive)
GI50 (K562): > 100 µM (inactive)
GI50 (KM12): > 100 µM (inactive)
GI50 (LOX IMVI): > 100 µM (inactive)
GI50 (M14): > 100 µM (inactive)
GI50 (MCF7): > 100 µM (inactive)
GI50 (MDA-MB-231): > 100 µM (inactive)
GI50 (MDA-MB-435): > 100 µM (inactive)
GI50 (MDA-N): > 100 µM (inactive)
GI50 (MOLT-4): > 100 µM (inactive)
GI50 (NCI-H226): > 100 µM (inactive)
GI50 (NCI-H23): > 100 µM (inactive)
GI50 (NCI-H460): > 100 µM (inactive)
GI50 (NCI-H522): 92 µM (inactive)
GI50 (NCI/ADR-RES): 83 µM (inactive)
GI50 (OVCAR-3): > 100 µM (inactive)
GI50 (OVCAR-4): > 100 µM (inactive)
GI50 (OVCAR-8): > 100 µM (inactive)
GI50 (PC-3): > 100 µM (inactive)
GI50 (RXF 393): > 100 µM (inactive)
GI50 (SF-268): > 100 µM (inactive)
GI50 (SF-295): > 100 µM (inactive)
GI50 (SK-MEL-5): > 100 µM (inactive)
GI50 (SN12C): > 100 µM (inactive)
GI50 (SNB-19): > 100 µM (inactive)
GI50 (SNB-75): 48.4 µM (inactive)
GI50 (SW-620): > 100 µM (inactive)
GI50 (T47D): > 100 µM (inactive)
GI50 (TK-10): > 100 µM (inactive)
GI50 (U-251): > 100 µM (inactive)
GI50 (UACC-257): > 100 µM (inactive)
GI50 (UO-31): 78.5 µM (inactive)

C=C(C(N)=O)c1ccc([N+](=O)[O-])o1
GI50 (786-0): 11.2 µM (inactive)
GI50 (A498): 12.6 µM (inactive)
GI50 (A549): 15.1 µM (inactive)
GI50 (ACHN): 2.89 µM (inactive)
GI50 (CAKI-1): 3.4 µM (inactive)
GI50 (CCRF-CEM): 3.22 µM (inactive)
GI50 (COLO 205): 3.31 µM (inactive)
GI50 (DU-145): 11.4 µM (inactive)
GI50 (EKVX): 18.1 µM (inactive)
GI50 (HCC 2998): 16.7 µM (inactive)
GI50 (HCT-116): 3.97 µM (inactive)
GI50 (HCT-15): 9.02 µM
GI50 (HL-60): 3.16 µM (inactive)
GI50 (HOP-62): 22.8 µM (inactive)
GI50 (HOP-92): 6.49 µM (inactive)
GI50 (HT-29): 11.9 µM (inactive)
GI50 (Hs-578T): 36.4 µM (inactive)
GI50 (IGROV-1): 10.6 µM (inactive)
GI50 (K562): 3.61 µM (inactive)
GI50 (KM12): 16.7 µM (inactive)
GI50 (LOX IMVI): 10.1 µM (inactive)
GI50 (M14): 2.82 µM (inactive)
GI50 (MCF7): 6.11 µM (inactive)
GI50 (MDA-MB-231): 13.8 µM (inactive)
GI50 (MDA-MB-435): 2.56 µM (inactive)
GI50 (MDA-N): 3 µM (inactive)
GI50 (MOLT-4): 3.84 µM (inactive)
GI50 (Malme-3M): 2.2 µM (inactive)
GI50 (NCI-H226): 20.3 µM (inactive)
GI50 (NCI-H23): 5.02 µM (inactive)
GI50 (NCI-H460): 19.9 µM (inactive)
GI50 (NCI-H522): 1.97 µM (inactive)
GI50 (NCI/ADR-RES): 15.5 µM (inactive)
GI50 (OVCAR-3): 8.36 µM (inactive)
GI50 (OVCAR-4): 11.6 µM (inactive)
GI50 (OVCAR-5): 18.7 µM (inactive)
GI50 (OVCAR-8): 2.9 µM (inactive)
GI50 (PC-3): 30.7 µM (inactive)
GI50 (RXF 393): 3.08 µM (inactive)
GI50 (SF-268): 8.36 µM (inactive)
GI50 (SF-295): 42 µM (inactive)
GI50 (SF-539): 12.6 µM (inactive)
GI50 (SK-MEL-28): 2.67 µM (inactive)
GI50 (SK-MEL-2): 5.93 µM (inactive)
GI50 (SK-MEL-5): 5.74 µM (inactive)
GI50 (SK-OV-3): 30.8 µM (inactive)
GI50 (SN12C): 10.3 µM (inactive)
GI50 (SNB-19): 37.1 µM (inactive)
GI50 (SNB-75): 9.46 µM (inactive)
GI50 (SR): 9.46 µM (inactive)
GI50 (SW-620): 5.81 µM (inactive)
GI50 (T47D): 20.5 µM (inactive)
GI50 (TK-10): 14.1 µM (inactive)
GI50 (U-251): 15.6 µM (inactive)
GI50 (UACC-257): 8.51 µM (inactive)
GI50 (UACC-62): 7.03 µM (inactive)
